{"source": "patent EP4069710B1", "about": "“PD(I) COMPLEXES, PROCESS FOR THEIR PREPARATION AND USE THEREOF AS ANTITUMOUR AGENTS” (Universita' Ca' Foscari Venezia, priority 2019, dated 2021)", "assay_type_in_all_cases": "cell-based", "key": {"DLD1": {"tested_on": "DLD1", "experiment": "Antiproliferative activity, cell viability by CellTiter-Glo after 96 hours", "conditions": "DLD1 (colon cancer), mean ± standard deviation of triplicate measurements", "protocol": "(§1) Tecan analyser, mod. Infinite® M1000.\n(§2) Tests were performed for the purpose of determining the inhibitory concentration (IC50) of a compound of the invention towards tumour cell lines and on a control cell line; for comparative purposes, the same tests were performed with the cisplatin compound.\n(§3) The tested cell lines were: A2780, A2780cis, OVCAR5, OVCAR3 e KURAMOCHI (ovarian cancer), A549 (lung cancer), HeLa (cervical cancer), DLD1 (colon cancer) and MRC-5 (control; lung fibroblasts). The mother solutions were obtained in dimethyl sulfoxide for the Pd(I) compound and in H2O for cisplatin.\n(§4) The cells were kept, according to the protocols indicated by the suppliers, at 37 °C in an atmosphere containing 5% carbon dioxide. About 500 cells were plated on 96 different well-plates and kept under such conditions for 96 hours.\n(§5) The viability of the cells was determined, after treatment of the cells with a 1:1 CellTiter-Glo® solution (registered trademark of Promega Corp., Madison, Wisconsin, USA) and DPBS, with the Tecan Infinite® M1000 instrument. The IC50 values were calculated by the response curves to the dose. The means and standard deviations were obtained from triplicate measurements."}, "A2780cis": {"tested_on": "A2780cis", "experiment": "Antiproliferative activity, cell viability by CellTiter-Glo after 96 hours", "conditions": "A2780cis (ovarian cancer), mean ± standard deviation of triplicate measurements", "protocol": "as §1, §2, §3, §4, §5"}, "OVCAR5": {"tested_on": "OVCAR5", "experiment": "Antiproliferative activity, cell viability by CellTiter-Glo after 96 hours", "conditions": "OVCAR5 (ovarian cancer), mean ± standard deviation of triplicate measurements", "protocol": "as §1, §2, §3, §4, §5"}, "Kuramochi": {"tested_on": "Kuramochi", "experiment": "Antiproliferative activity, cell viability by CellTiter-Glo after 96 hours", "conditions": "Kuramochi (ovarian cancer), mean ± standard deviation of triplicate measurements", "protocol": "as §1, §2, §3, §4, §5"}, "OVCAR3": {"tested_on": "OVCAR3", "experiment": "Antiproliferative activity, cell viability by CellTiter-Glo after 96 hours", "conditions": "OVCAR3 (ovarian cancer), mean ± standard deviation of triplicate measurements", "protocol": "as §1, §2, §3, §4, §5"}, "MRC-5": {"tested_on": "MRC-5", "experiment": "Antiproliferative activity on control cell line, cell viability by CellTiter-Glo after 96 hours", "conditions": "MRC-5 (control; lung fibroblasts), mean ± standard deviation of triplicate measurements", "protocol": "as §1, §2, §3, §4, §5"}}, "data": [{"smiles": "N.N.[Cl][Pt][Cl]", "note": "[Cisplatin, cis-diamine-dichloroplatinum(II)]", "values": [{"measurement": "IC50", "setting": "DLD1", "value": "4.2 ± 0.5", "unit": "µM"}, {"measurement": "IC50", "setting": "A2780cis", "value": "43 ± 3", "unit": "µM"}, {"measurement": "IC50", "setting": "OVCAR5", "value": "5.2 ± 0.8", "unit": "µM"}, {"measurement": "IC50", "setting": "Kuramochi", "value": "1.7 ± 0.3", "unit": "µM"}, {"measurement": "IC50", "setting": "OVCAR3", "value": "2.2 ± 0.1", "unit": "µM"}, {"measurement": "IC50", "setting": "MRC-5", "value": "14 ± 1", "unit": "µM"}]}]}
